Data taken from ChEMBL document CHEMBL4350988, “Development of selective small molecule MDM2 degraders based on nutlin” (Eur J Med Chem, 2019).
Blank lines part the entries; values can stand above or below the compound they belong to. Calls of active or inactive are those of the source. The rule behind the calls is not given here.

Columns and labels:
[1] = biological target: T1, Protein cereblon/E3 ubiquitin-protein ligase Mdm2 (Homo sapiens, UniProt Q00987+Q96SW2); experiment: Protac activity at CRBN/MDM2 in human RS4:11 cells assessed as increase in degradation of MDM2 at 10 to 100 nM measured after 12 hrs by Western blot analysis; type: cell-based
Target sequence in this assay (Q00987 whole entry, looked up): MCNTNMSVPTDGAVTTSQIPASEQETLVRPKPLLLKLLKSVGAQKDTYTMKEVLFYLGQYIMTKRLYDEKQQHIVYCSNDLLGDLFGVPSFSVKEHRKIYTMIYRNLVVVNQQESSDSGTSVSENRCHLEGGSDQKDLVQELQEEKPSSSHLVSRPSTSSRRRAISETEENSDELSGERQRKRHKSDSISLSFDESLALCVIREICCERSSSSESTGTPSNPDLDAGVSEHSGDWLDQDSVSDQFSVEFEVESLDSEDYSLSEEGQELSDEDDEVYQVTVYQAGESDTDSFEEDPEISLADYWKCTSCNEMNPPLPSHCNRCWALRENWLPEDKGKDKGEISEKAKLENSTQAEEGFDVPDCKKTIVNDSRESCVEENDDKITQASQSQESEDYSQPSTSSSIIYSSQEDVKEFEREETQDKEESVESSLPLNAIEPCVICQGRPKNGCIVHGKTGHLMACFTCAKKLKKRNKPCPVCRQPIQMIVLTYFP
Target sequence in this assay (Q96SW2 whole entry, looked up): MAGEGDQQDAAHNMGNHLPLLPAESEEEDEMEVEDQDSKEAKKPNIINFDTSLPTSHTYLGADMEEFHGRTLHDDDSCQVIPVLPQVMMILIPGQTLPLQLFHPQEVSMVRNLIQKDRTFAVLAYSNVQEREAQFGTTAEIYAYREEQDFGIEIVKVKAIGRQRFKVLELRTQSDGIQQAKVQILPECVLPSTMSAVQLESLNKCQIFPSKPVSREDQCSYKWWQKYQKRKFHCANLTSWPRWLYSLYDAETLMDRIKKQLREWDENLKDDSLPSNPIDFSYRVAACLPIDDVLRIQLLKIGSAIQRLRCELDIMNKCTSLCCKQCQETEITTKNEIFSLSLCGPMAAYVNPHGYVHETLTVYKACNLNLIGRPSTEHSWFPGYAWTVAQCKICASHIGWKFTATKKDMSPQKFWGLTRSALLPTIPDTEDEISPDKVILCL

[2] = biological target: T1, Protein cereblon/E3 ubiquitin-protein ligase Mdm2; experiment: Protac activity at CRBN/MDM2 in human RS4:11 cells assessed as upregulation of MDM2 expression at 1 uM measured after 6 hrs by qRT-PCR method; type: cell-based
Target sequence in this assay (Q00987 whole entry, looked up): as the sequence (Q00987 whole entry, looked up) above
Target sequence in this assay (Q96SW2 whole entry, looked up): as the sequence (Q96SW2 whole entry, looked up) above

[3] = biological target: T1, Protein cereblon/E3 ubiquitin-protein ligase Mdm2; experiment: Protac activity at CRBN/MDM2 in human RS4:11 cells assessed as upregulation of P21 expression at 1 uM measured after 6 hrs by qRT-PCR method; type: cell-based
Target sequence in this assay (Q00987 whole entry, looked up): as the sequence (Q00987 whole entry, looked up) above
Target sequence in this assay (Q96SW2 whole entry, looked up): as the sequence (Q96SW2 whole entry, looked up) above

[4] = biological target: T1, Protein cereblon/E3 ubiquitin-protein ligase Mdm2; experiment: Protac activity at CRBN/MDM2 in human RS4:11 cells assessed as effect on TP53 expression at 1 uM measured after 6 hrs by qRT-PCR method; type: cell-based
Target sequence in this assay (Q00987 whole entry, looked up): as the sequence (Q00987 whole entry, looked up) above
Target sequence in this assay (Q96SW2 whole entry, looked up): as the sequence (Q96SW2 whole entry, looked up) above

[5] = test system: RS4-11; experiment: Induction of apoptosis in human RS4:11 cells assessed as viable cells at 10 nM after 24 hrs by Annexin-V-FITC/propidium iodide staining based flow cytometry relative to control; type: functional; conditions: RS4-11, 24 h, read-out: Activity
[6] = test system: RS4-11; experiment: Induction of apoptosis in human RS4:11 cells assessed as early apoptotic cells at 10 nM after 24 hrs by Annexin-V-FITC/propidium iodide staining based flow cytometry relative to control; type: functional
[7] = test system: RS4-11; experiment: Induction of apoptosis in human RS4:11 cells assessed as late apoptotic cells at 10 nM after 24 hrs by Annexin-V-FITC/propidium iodide staining based flow cytometry relative to control; type: functional
[8] = test system: RS4-11; experiment: Induction of apoptosis in human RS4:11 cells assessed as necrotic cells at 10 nM after 24 hrs by Annexin-V-FITC/propidium iodide staining based flow cytometry relative to control; type: functional
[9] = test system: RS4-11; experiment: Induction of apoptosis in human RS4:11 cells assessed as viable cells at 100 nM after 24 hrs by Annexin-V-FITC/propidium iodide staining based flow cytometry relative to control; type: functional; conditions: RS4-11, 24 h, read-out: Activity
[10] = test system: RS4-11; experiment: Induction of apoptosis in human RS4:11 cells assessed as early apoptotic cells at 100 nM after 24 hrs by Annexin-V-FITC/propidium iodide staining based flow cytometry relative to control; type: functional
[11] = test system: RS4-11; experiment: Induction of apoptosis in human RS4:11 cells assessed as late apoptotic cells at 100 nM after 24 hrs by Annexin-V-FITC/propidium iodide staining based flow cytometry relative to control; type: functional
[12] = test system: RS4-11; experiment: Induction of apoptosis in human RS4:11 cells assessed as necrotic cells at 100 nM after 24 hrs by Annexin-V-FITC/propidium iodide staining based flow cytometry relative to control; type: functional
[13] = test system: RS4-11; experiment: Induction of apoptosis in human RS4:11 cells assessed as viable cells at 1000 nM after 24 hrs by Annexin-V-FITC/propidium iodide staining based flow cytometry relative to control; type: functional; conditions: RS4-11, 24 h, read-out: Activity
[14] = test system: RS4-11; experiment: Induction of apoptosis in human RS4:11 cells assessed as early apoptotic cells at 1000 nM after 24 hrs by Annexin-V-FITC/propidium iodide staining based flow cytometry relative to control; type: functional
[15] = test system: RS4-11; experiment: Induction of apoptosis in human RS4:11 cells assessed as late apoptotic cells at 1000 nM after 24 hrs by Annexin-V-FITC/propidium iodide staining based flow cytometry relative to control; type: functional
[16] = test system: RS4-11; experiment: Induction of apoptosis in human RS4:11 cells assessed as necrotic cells at 1000 nM after 24 hrs by Annexin-V-FITC/propidium iodide staining based flow cytometry relative to control; type: functional
[17] = test system: RS4-11; experiment: Antiproliferative activity against human RS4:11 cells assessed as reduction in cell viability at 100 nM after 48 hrs by MTT assay; type: functional, cell-based
[18] = test system: RS4-11; experiment: Antiproliferative activity against human RS4:11 cells assessed as reduction in cell viability after 48 hrs by MTT assay; type: functional, cell-based; conditions: RS4-11, 48 h
[19] = biological target: T1, Protein cereblon/E3 ubiquitin-protein ligase Mdm2; experiment: Protac activity at CRBN/MDM2 in human RS4:11 cells assessed as increase in degradation of MDM2 at 100 nM by Western blot analysis; type: cell-based
Target sequence in this assay (Q00987 whole entry, looked up): as the sequence (Q00987 whole entry, looked up) above
Target sequence in this assay (Q96SW2 whole entry, looked up): as the sequence (Q96SW2 whole entry, looked up) above

[20] = biological target: T1, Protein cereblon/E3 ubiquitin-protein ligase Mdm2; experiment: Protac activity at CRBN/MDM2 in human RS4:11 cells assessed as increase in accumulation of p53 at 100 nM by Western blot analysis; type: cell-based
Target sequence in this assay (Q00987 whole entry, looked up): as the sequence (Q00987 whole entry, looked up) above
Target sequence in this assay (Q96SW2 whole entry, looked up): as the sequence (Q96SW2 whole entry, looked up) above

[21] = biological target: T1, Protein cereblon/E3 ubiquitin-protein ligase Mdm2; experiment: Protac activity at CRBN/MDM2 in human RS4:11 cells assessed as increase in degradation of MDM2 by Western blot analysis; type: cell-based; conditions: TDE = time-dependent effect
[22] = biological target: T1, Protein cereblon/E3 ubiquitin-protein ligase Mdm2; experiment: Protac activity at CRBN/MDM2 in human RS4:11 cells assessed as maximal MDM2 degradation level at 100 nM after 24 hrs by Western blot analysis relative to control; type: cell-based
[23] = biological target: T1, Protein cereblon/E3 ubiquitin-protein ligase Mdm2; experiment: Protac activity at CRBN/MDM2 in human RS4:11 cells assessed as MDM2 degradation by Western blot analysis; type: cell-based
[24] = biological target: T1, Protein cereblon/E3 ubiquitin-protein ligase Mdm2; experiment: Protac activity at CRBN/MDM2 in human RS4:11 cells assessed as reduction in MDM2 degradation at 100 nM preincubated with ((4S,5R)-2-(4-(tert-butyl)-2-ethoxyphenyl)-4,5-bis(4-chlorophenyl)-4,5-dihydro-1H-imidazol-1-yl)(piperazin-1-yl)methanone for 2 hrs followed by compound addition measured after 4 hrs by Western blot analysis; type: cell-based
[25] = biological target: T1, Protein cereblon/E3 ubiquitin-protein ligase Mdm2; experiment: Protac activity at CRBN/MDM2 in human RS4:11 cells assessed as reduction in MDM2 degradation at 100 nM preincubated with lenalidomide for 2 hrs followed by compound addition measured after 4 hrs by Western blot analysis; type: cell-based
[26] = biological target: T1, Protein cereblon/E3 ubiquitin-protein ligase Mdm2; experiment: Protac activity at CRBN/MDM2 in human RS4:11 cells assessed as MDM2 degradation at 100 nM preincubated with proteasome inhibitior MG132 for 2 hrs followed by compound addition measured after 4 hrs by Western blot analysis; type: cell-based
[27] = biological target: T1, Protein cereblon/E3 ubiquitin-protein ligase Mdm2; experiment: Protac activity at CRBN/MDM2 in human RS4:11 cells assessed as upregulation of MDM2 expression at 100 nM measured after 6 hrs by qRT-PCR method; type: cell-based
[28] = biological target: T1, Protein cereblon/E3 ubiquitin-protein ligase Mdm2; experiment: Protac activity at CRBN/MDM2 in human RS4:11 cells assessed as upregulation of P21 expression at 100 nM measured after 6 hrs by qRT-PCR method; type: cell-based
[29] = biological target: T1, Protein cereblon/E3 ubiquitin-protein ligase Mdm2; experiment: Protac activity at CRBN/MDM2 in human RS4:11 cells assessed as effect on TP53 expression at 30 to 100 nM measured after 6 hrs by qRT-PCR method; type: cell-based
[30] = biological target: T1, Protein cereblon/E3 ubiquitin-protein ligase Mdm2; experiment: Protac activity at CRBN/MDM2 in human RS4:11 cells assessed as degradation of MDM2 at 100 nM to 1 uM by Westernblot analysis; type: cell-based
[31] = biological target: T1, Protein cereblon/E3 ubiquitin-protein ligase Mdm2; experiment: Protac activity at CRBN/MDM2 in human RS4:11 cells assessed as upregulation of P53 expression at 100 nM to 1 uM by Westernblot analysis; type: cell-based
[32] = biological target: T1, Protein cereblon/E3 ubiquitin-protein ligase Mdm2; experiment: Protac activity at CRBN/MDM2 in human RS4:11 cells assessed as increase in P21 expression at 100 nM to 1 uM by Westernblot analysis; type: cell-based
[33] = test system: RS4-11; experiment: Induction of apoptosis in human RS4:11 cells assessed as PARP cleavage at 100 nM to 1 uM by Westernblot analysis; type: functional, cell-based
[34] = test system: RS4-11; experiment: Induction of apoptosis in human RS4:11 cells assessed as caspase3 expression at 100 nM to 1 uM by Westernblot analysis; type: functional, cell-based
[35] = biological target: T1, Protein cereblon/E3 ubiquitin-protein ligase Mdm2; experiment: Protac activity at CRBN/MDM2 in human RS4:11 cells assessed as PARP cleavage after 6 hrs by Western blot analysis; type: cell-based
[36] = biological target: T1, Protein cereblon/E3 ubiquitin-protein ligase Mdm2; experiment: Protac activity at CRBN/MDM2 in human RS4:11 cells assessed MDM2 degradation at 10 to 100 nM measured after 1 hr by immunoblot analysis; type: cell-based
[37] = test system: RS4-11; experiment: Induction of apoptosis in human RS4:11 cells by Annexin-V-FITC/propidium iodide staining based flow cytometry relative to control; type: functional, cell-based

Structure (SMILES): CCOc1cc(C(C)(C)C)ccc1C1=N[C@@H](c2ccc(Cl)cc2)[C@@H](c2ccc(Cl)cc2)N1C(=O)N1CCNCC1
- Activity [2]: Active
- Activity [3]: Active
- Activity [4]: inactive
- viability at 0.01 µM [5]: 84.2%
- Activity [6]: 10.5%
- Activity [7]: 5.37%
- Activity [8]: 0.00582%
- viability at 0.1 µM [9]: 84.4%
- Activity [10]: 10.1%
- Activity [11]: 5.45%
- Activity [12]: 0%
- viability at 1 µM [13]: 69.5%
- Activity [14]: 13.7%
- Activity [15]: 16.3%
- Activity [16]: 0.46%

Structure (SMILES): CCOc1cc(C(C)(C)C)ccc1C1=N[C@@H](c2ccc(Cl)cc2)[C@@H](c2ccc(Cl)cc2)N1C(=O)N1CCN(CCCC#Cc2cccc3c2CN(C2CCC(=O)NC2=O)C3=O)CC1 (some centres undefined)
- Activity [17]: Active

Structure (SMILES): CCOc1cc(C(C)(C)C)ccc1C1=N[C@@H](c2ccc(Cl)cc2)[C@@H](c2ccc(Cl)cc2)N1C(=O)N1CCN(CC#Cc2cccc3c2CN(C2CCC(=O)NC2=O)C3=O)CC1 (some centres undefined)
- IC50 [18]: 3.2 nM
- Activity [17]: Active
- Activity [1]: Active
- Activity [19]: Active
- Activity [20]: Active
- Activity [21]: Tde
- Emax [22]: 90%
- Activity [23]: Dose-dependent effect
- DC50 [23]: 23 nM
- Activity [24]: Active
- Activity [25]: Active
- Activity [26]: Active
- Activity [27]: Active
- Activity [28]: Active
- Activity [29]: inactive
- Activity [30]: Active
- Activity [31]: Active
- Activity [32]: Active
- Activity [33]: Active
- Activity [34]: Active
- viability at 0.01 µM [5]: 79.2%
- Activity [6]: 10.5%
- Activity [7]: 10.1%
- Activity [8]: 0.2%
- viability at 0.1 µM [9]: 26%
- Activity [10]: 22.3%
- Activity [11]: 51.6%
- Activity [12]: 0.1%
- viability at 1 µM [13]: 28.8%
- Activity [14]: 27.1%
- Activity [15]: 43.9%
- Activity [16]: 0.27%
- Activity [35]: Active
- Activity [36]: Active
- Activity [37]: Dose-dependent effect

Structure (SMILES): CCOc1cc(C(C)(C)C)ccc1C1=N[C@@H](c2ccc(Cl)cc2)[C@@H](c2ccc(Cl)cc2)N1C(=O)N1CCN(CCC#Cc2cccc3c2CN(C2CCC(=O)NC2=O)C3=O)CC1 (some centres undefined)
- Activity [17]: Active

Structure (SMILES): CCOc1cc(C(C)(C)C)ccc1C1=NC(c2ccc(Cl)cc2)C(c2ccc(Cl)cc2)N1C(=O)N1CCN(CC#Cc2cccc3c2CN(C2CCC(=O)NC2=O)C3=O)CC1 (racemic)
- IC50 [18]: 7.2 nM
- Activity [17]: Active
- Activity [1]: Active
- Activity [19]: Active
- Activity [20]: Active

Second part, the compound after the results:

- Activity [1]: Active
Structure (SMILES): CCOc1cc(C(C)(C)C)ccc1C1=N[C@@H](c2ccc(Cl)cc2)[C@@H](c2ccc(Cl)cc2)N1C(=O)N1CCN(C(=O)CCC#Cc2cccc3c2CN(C2CCC(=O)NC2=O)C3=O)CC1 (some centres undefined)

- Activity [1]: Active
Structure (SMILES): CCOc1cc(C(C)(C)C)ccc1C1=N[C@H](c2ccc(Cl)cc2)[C@H](c2ccc(Cl)cc2)N1C(=O)N1CCN(C(=O)CNC(=O)CCCC#Cc2cccc3c2CN(C2CCC(=O)NC2=O)C3=O)CC1 (some centres undefined)
